Data: article PMC7913925, “Design and Evaluation of a Polypeptide That Mimics the Integrin Binding Site for EDA Fibronectin to Block Profibrotic Cell Activity” (International Journal of Molecular Sciences, 2021)
Bridges are numbered along the chain shown (N, C = ends). Where no end group is shown, it is not given here.

Legend:
Col3a1 mRNA = experiment: qRT-PCR Col3a1 mRNA; assay type: cell-based, mouse
Experimental: (§1) Reverse transcription (RT) and real-time quantitative PCR (qRT-PCR) were used to assess ACTA2/Acta2, Col1a1, Col3a1, Fn1, Eda-Fn1, Mmp9, Tgfb1, Ltbp1, Hic5, and Mrtfa mRNA expressions. Custom PCR primers were designed in-house (Table 2) and then synthesized by BGI (Beijing, China). Cells were grown in 6-well culture plates and washed with phosphate buffered saline (PBS) before lysis with TRIzon Reagent (CWBio, Beijing, China) and total RNA purification according to the manufacturer’s protocol. Reverse transcription was carried using the TransScript First-Strand cDNA Synthesis SuperMix kit according to the manufacturer’s protocol (TransGen, Beijing, China), using the random primer method for the initiation of cDNA synthesis. Nuclease-free H2O replaced the RNA sample to serve as a negative control for the reverse transcription reaction. For qRT-PCR, 10 µL 2× TransStart Top Green qPCR SuperMix was added to each well of a 96-well PCR plate containing 0.4 µL forward primer, 0.4 µL reverse primer, […], and nuclease-free water to a total volume of 20 µL. The qRT-PCR reaction was completed using a CFX96 Real-Time PCR Detection System (Bio-Rad Laboratories, Hercules, CA, USA). Amplification used the following parameters: 94 °C for 30 s, followed by 40 cycles of 94 °C for 5 s, 55 °C for 15 s, 72 °C for 10 s, and then a dissociation stage (melt-curve). […]

[1] = biological target: FN-RGD (RGD motif of fibronectin) (Homo sapiens, UniProt P02751); experiment: Isothermal calorimetry, AF38Pep with FN-RGD; assay type: binding; conditions: 25 °C, pH 7
Experimental: Custom designed peptides were resuspended in sterile-filtered HEPES buffered saline (140 mM NaCl, 1.5 mM Na2HPO4, 50 mM HEPES; pH 7). The larger EDA-FN binding peptide was diluted to 15 µM, degassed and added to the calorimetry chamber well. Three smaller test peptides (fibronectin EDA-peptide, FN-EDA; fibronectin RGD-peptide, FN-RGD and collagen I RGD-peptide, COL-RGD) were diluted to 300 µM, degassed and each was separately loaded into the calorimetry injection needle. The chamber well temperature was kept consistent at 25 °C. Blank buffer was used to replace either the well peptide or the injection needle peptide to account for background heat generation. Isothermal titration calorimetry was performed using a MicroCal iTC200 (Malvern Panalytical, Malvern, UK) and dissociation constant (KD) and association constant (KA) were calculated using the one set of sites model fitting (with number of binding sites assumed to be 1) in MicroCal Origin Software v8.5 (Malvern Panalytical).

[2] = test system: Mmp9 mRNA in NIH/3T3 fibroblasts; experiment: qRT-PCR Mmp9 mRNA; assay type: cell-based, mouse; conditions: 48 h, TGF-β1 10 ng/mL
Experimental: as §1

[3] = test system: mouse NIH/3T3 dermal fibroblast cells, α-SMA mRNA; experiment: α-SMA mRNA expression (qRT-PCR) in TGF-β1-treated NIH/3T3; assay type: cell-based
Experimental: (§2) HFL1 cells were cultured in Kaighn’s modified Ham’s F-12 (F-12K) medium (Sigma-Aldrich) containing NaHCO3 and HEPES buffered to pH 7. Cells were grown to confluence in T75 culture flasks in the presence of 10% fetal bovine serum (FBS; Gibco, Thermo Fisher Scientific, Waltham, MA, USA). HFL1 cells were subcultured using 0.05% trypsin at a ratio of 1:3. NIH/3T3 cells were cultured in Dulbecco’s Modified Eagle Medium (DMEM; HyClone, Thermo Fisher Scientific) containing 100 U/mL penicillin and 100 μg/mL streptomycin. Cells were grown to confluence in T75 culture flasks in the presence of 10% FBS. NIH/3T3 cells were subcultured using 0.05% trypsin/EDTA at a ratio of 1:3. All cells were maintained at 37 °C and 5% CO2, and growth medium was replenished every 3 days until experimentation. Cells were growth-arrested in serum-free medium for 48 h before experiments, and all experiments were performed under serum-free conditions using cells between passages 3 and 8.
as §1, with “µL.” for “µL. The qRT-PCR reaction was completed using a CFX96 Real-Time PCR Detection System (Bio-Rad Laboratories, Hercules, CA, USA). Amplification used the following parameters: 94 °C for 30 s, followed by 40 cycles of 94 °C for 5 s, 55 °C for 15 s, 72 °C for 10 s, and then a dissociation stage (melt-curve).”

[4] = test system: human HFL1 lung fibroblast cells; experiment: Cytotoxicity/proliferation assay (CCK-8) HFL1; assay type: cell-based; conditions: TGF-β1 stimulated HFL1, over 72 h
Experimental: as §2
Cells were seeded into 12-well culture plates at a density of 2.5 × 10^4 and when cultures reached 50% confluence, the culture medium was replaced with fresh serum-free F12K or serum-free DMEM/F12 for 48 h (growth arrest). […] Absorbance was measured at 450 nm wavelength using a Bio-Rad optical plate reader.

[5] = test system: α-SMA in NIH/3T3 dermal fibroblasts; experiment: Immunocytochemistry α-SMA stress fibers; assay type: cell-based, mouse; conditions: 48 h, TGF-β1 10 ng/mL, AF38Pep 10 µg/mL
Experimental: Cells were grown to 40% confluence in 8-well glass chamber slides (Nunc, Thermo Fisher Scientific), prior to growth arrest and treatment. Cells were washed with PBS before fixation in 4% paraformaldehyde for 10 min at room temperature. Next, cells were permeabilized with 0.1% (v/v) Triton X-100 in PBS for 10 min at room temperature. For visualization of ECM, cells were fixed with 100% ice-cold methanol for 8 min at −20 °C. Slides were washed with PBS and blocked with 1% goat serum (TBD Science, Tianjin, China) for 30 min before washing with 0.1% (w/v) BSA in PBS. Subsequently, slides were incubated with monoclonal mouse anti-α-SMA antibody (Sigma-Aldrich, 1:50) diluted in 0.1% BSA-PBS, overnight at 4 °C. After further wash steps, slides were incubated with goat anti-mouse IgG CF-488 secondary antibody (Abcam, 1:1000) in 0.1% BSA-PBS for 1 h at room temperature and under darkness. For F-actin visualization, after fixation and permeabilization; cells were incubated with phalloidin conjugated to FITC (Sigma-Aldrich) in 0.1% BSA-PBS, overnight at 4 °C. Cells were then mounted in DAPI Fluoromount-G (Thermo Fisher Scientific) and imaged using a Zeiss Axio Imager Z1 UV fluorescence microscope (Zeiss, Jena, Germany) and a Leica TCS SP5 laser scanning confocal microscope (Leica Biosystems, Baden-Württemberg, Germany).

[6] = test system: vascular cell adhesion protein-1 (VCAM1); experiment: Western blot total protein VCAM1; assay type: cell-based; conditions: 48 h TGF-β1, AF38Pep or TGF-β1+AF38Pep

VMPYISTTPAKPCTSENCGNSWYGGFKSKNENKIYFIN (disulfide 13-18 (inferred)) [AF38Pep]
collagen type III mRNA expression (Col3a1 mRNA; 72 h, TGF-β1 + AF38Pep): all inhibited | collagen type III mRNA expression (Col3a1 mRNA; by 48 h, vs TGF-β1-only): significant attenuation | ITC interaction (thermogram) [1]: not between AF38Pep and FN-RGD or COL-RGD | MMP9 mRNA expression [2]: attenuated | attenuation of TGF-β1-induced α-SMA mRNA ([3]; NIH/3T3, 48 h, all concentrations tested (log10 dilution range)): significantly attenuated gene induction at 48 h in all concentrations tested | attenuation of TGF-β1-induced α-SMA mRNA ([3]; NIH/3T3, 72 h, 10 µg/mL): only AF38Pep treatment at a concentration of 10 µg/mL was sufficient to significantly attenuate the α-SMA mRNA upregulation | attenuation of TGF-β1-induced α-SMA mRNA ([3]; NIH/3T3, 72 h, 0.1–1 µg/mL): not able to effectively inhibit the differentiation response over the 72 h duration of treatment | cytotoxicity/proliferation [4]: not detrimental to cell numbers | α-SMA protein expression (stress fibers) [5]: inhibited | VCAM1 total protein [6]: remained unaffected
